ChEMBL document CHEMBL5729684, “Pharmaceutical compounds” (2023)

Assay: Plaque Reduction Assay: Hep-G2 cells (ECACC, 85011430) were passaged in flasks and seeded in 24-well plates in DMEM containing antibiotics and supplemented with 10% FBS. During inoculation and subsequent incubation, cells were cultured in DMEM containing 2% FBS. 100 plaque forming unit/well of RSV (RSV A2 ECACC, 0709161v) was mixed with eight serial dilutions of compound. Subsequently, 100 μL of the virus/compound mixtures was added to confluent Hep-G2 cell monolayers. The cells and virus/compound mixtures were incubated at 37° C. in a humidified 5% CO2 incubator for 2 h prior to removal of the inoculum and addition of 1 mL of overlay (DMEM containing 2% FBS and 0.8% CMC) containing compound dilutions. The cells and were incubated at 37° C. in a humidified 5% CO2 incubator for 2 days.Cells were washed with PBS before adding 75/25% […] EtOH/MeOH, for 3 min. Fixative was removed and plates were washed with PBS. A pre-titrated amount of the primary antibody was added in 200 μL PBS/2% milk powder, and plates incubated for 90 min at 37° C. The plates were washed 3 times with PBS/0.05% Tween20 before addition of rabbit anti-goat horse radish peroxidase in 200 μL PBS/2% milk powder, and incubated for 1 h at 37° C. Following three wash steps with PBS/0.05% Tween20, 200 μL ready-to-use TrueBlue was added and plates were incubated at rt for 10-15 min before washing with water. After removal of water, plates were air-dried in the dark.Plates were scanned and analysed using the Immunospot S6 Macro analyser, which is equipped with BioSpot analysis software for counting immunostained plaques (virospots). Plaque counts were used to calculate % c infection relative to the mean of the plaque count in the virus control wells for RSV. The EC50 value was calculated as 50% reduction in signal, respectively, by interpolation of inhibition curves fitted with a 4-parameter nonlinear regression with a variable slope in Dotmatics.
Conditions: HepG2

| SMILES | EC50 [nM] |
| --- | --- |
| Cc1nc(NC(C)C)ccc1-c1nn2cccnc2c1C(=O)N[C@H]1N=C(c2ccccc2)c2ccccc2NC1=O | 41 |
| Cc1ccnc2c(C(=O)N[C@H]3N=C(c4ccccc4)c4cccc(F)c4NC3=O)c(-c3ccccc3F)nn12 | 27 |
| O=C(N[C@H]1N=C(c2ccccc2)c2cccc(F)c2NC1=O)c1c(-c2ccccc2)nn2cccnc12 | 90 |
| Cc1cc(NC(C)C)ncc1-c1nn2cccnc2c1C(=O)N[C@H]1N=C(c2ccccc2)c2cccc(F)c2NC1=O | 74 |
| Cc1nc(NC(C)C)ccc1-c1nn2cccnc2c1C(=O)N[C@H]1N=C(c2ccccc2)c2cccc(F)c2NC1=O | 25 |
